Like-named read-outs stand apart in the source and are kept apart here.
Columns and labels:
[1] = test system: human primary fibroblasts (CRL2097); assay: Immunofluorescence staining of oligodendrocyte-specific markers in chemically treated fibroblasts; format: cell-based; settings: compared to the solvent control group (FIG. 1B)
Protocol: Cells (1×10^4 per well) were plated on 24-well plates. Cells were cultured in HG-DMEM (Life Technologies) supplemented with 10% fetal bovine serum (FBS) (Hyclone) for 2 days. Then the medium was replaced with DMEM/F12 (Gibco) with 1% N2 supplement, 1% B27 supplement (all from Life Technologies), 20 ng/ml Platelet-Derived Growth Factor AA (PDGF-AA), 20 ng/ml Epidermal Growth Factor (EGF), 20 ng/mL Basic Fibroblast Growth Factor (bFGF), 20 ng/ml Neurotrophin-3 (NT3) (all from Peprotech). Then the cells were treated with 3 mM valproic acid (Tocris) for 2 days, 10 μM Y27632 (LC Laboratories), 10 μM SU9516 (R&D Systems), and 10 μM Forskolin (FSK) (Tocris) for 1 day. The reagent is listed in supplementary Table S1 and Table S2. Cells were fixed with 4% formaldehyde for 15 minutes at room temperature, and washed once with 1×Phosphate Buffered Saline (PBS). Cells were permeabilized with 0.3% Triton X-100 for 5 minutes, washed twice with 1×PBS, and blocked in 2% Bovine Serum Albumin (BSA) in PBS for 30 minutes. […] Fluorescence was analyzed using a fluorescence microscope (Axiovert 200 M, Zeiss).

[2] = test system: human primary fibroblasts (CRL2097); assay: Morphology screening for conversion of fibroblasts into oligodendrocyte-like cells; format: cell-based; settings: for morphological changes in fibroblasts (dendritic and dome-shaped): human fibroblasts CRL2097, phase-contrast, vs solvent control (FIG. 1A)
Protocol: The human normal foreskin skin fibroblast primary cells (CRL-2097) were obtained from the ATCC. CRL-2097 cells were cultured at 37° C. with 5% CO2 in high glucose Dulbecco's Modified Eagle's Medium (HG-DMEM) (Life Technologies) supplemented with 10% fetal bovine serum (FBS) (Hyclone). Cell viability was determined by trypan blue staining. All of the cultures were free of mycoplasma. This study was approved by the Academia Sinica ethics committee (IRB number: AS-IRB-BM-17008, AS-IRB-BM-20038). Cells (1×10^4 per well) were plated on 24-well plates. Cells were cultured in HG-DMEM (Life Technologies) supplemented with 10% fetal bovine serum (FBS) (Hyclone) for 2 days. Then the medium was replaced with DMEM/F12 (Gibco) with 1% N2 supplement, 1% B27 supplement (all from Life Technologies), 20 ng/ml Platelet-Derived Growth Factor AA (PDGF-AA), 20 ng/ml Epidermal Growth Factor (EGF), 20 ng/mL Basic Fibroblast Growth Factor (bFGF), 20 ng/ml Neurotrophin-3 (NT3) (all from Peprotech). Then the cells were treated with 3 mM valproic acid (Tocris) for 2 days, 10 μM Y27632 (LC Laboratories), 10 μM SU9516 (R&D Systems), and 10 μM Forskolin (FSK) (Tocris) for 1 day. The reagent is listed in supplementary Table S1 and Table S2. To find out which chemicals could convert fibroblasts into oligodendrocyte-like cells, we screened chemically-treated cells based on morphological changes that included the formation of a dendritic morphology of neural lineage cells and the dome-shaped morphology of the cell bodies of oligodendrocytes. In a preliminary screen, two chemicals, Y27632 and SU9516, were identified that may be involved in triggering the generation of oligodendrocyte-like cells from human primary fibroblasts (CRL2097). […] To characterize the induced oligodendrocyte-like cells, we performed immunofluorescence staining to analyze the expression of oligodendrocyte-specific markers. […] Next, to optimize the two-chemical cocktail, we performed an additional high-throughput screen using a chemical library of over 1,500 molecules purchased from Selleckchem®. […]

[3] = test system: cuprizone-induced demyelination; settings: cited from earlier work

SMILES | expression of oligodendrocyte-specific marker 4 (O4) by immunofluorescence [1] | morphological changes in fibroblasts (dendritic and dome-shaped) [2] | further results
COc1ccc2c(c1)/C(=C/c1cnc[nH]1)C(=O)N2 [SU9516, (Z)-3-((1H-imidazol-5-yl)methylene)-5-methoxyindolin-2-one] | higher 04 expression | induced morphological changes | –
CCCC(CCC)C(=O)O [VPA, valproic acid] | – | – | conversion efficiency, VPA pretreatment vs co-treatment with YSF ([2]; VPA 2 days then YSF 1 day, or VPA co-treated with YSF 1 day (FIG. 1D)): only pretreatment could improve the conversion efficiency
COc1ccc2c(c1)c(CC(=O)O)c(C)n2C(=O)c1ccc(Cl)cc1 [Indomethacin] | – | – | remyelination ([3]; 10-week cuprizone-induced demyelination model, ref [33]): promote remyelination
CNC(=O)c1cc(Oc2ccc3nc(N[C@@H]4CCCC[C@H]4O)sc3c2)ccn1 [BLZ945] | – | – | remyelination ([3]; 5-week cuprizone-induced model, ref [34]): enhances remyelination
CC(C)(C)[C@]1(O)CC2OC(=O)CC23C(=O)OC2OC(=O)[C@H](O)C231 (some centres unmarked) [Bilobalide] | – | – | remyelination ([3]; cuprizone-induced 6-week model, ref [36]): promote remyelination
C[C@@H](N)[C@H]1CC[C@H](C(=O)Nc2ccncc2)CC1 [Y27632, Trans-4-[(1R)-1-Aminoethyl]-N-(4-pyridinyl)cyclohexanecarboxamide] | higher 04 expression | induced morphological changes | –

From patent US20240316014A1, “METHOD FOR TREATING DEMYELINATING CONDITIONS” (ACADEMIA SINICA, priority 2023, published 2024)
